This test has as its system HL-60. As to the kind of experiment: Cytotoxicity against human HL60 cells assessed as inhibition of [3H]thymidine incorporation. Format: functional, cell-based.
On to `C[C@@H]1O[C@@H](O[C@H]2[C@H](OC(=O)[C@]34CCC(C)(C)C[C@H]3C3=CC[C@@H]5[C@@]6(C)CC[C@H](O[C@@H]7O[C@H](CO)[C@@H](O)[C@H](O)[C@H]7O)C(C)(C)[C@@H]6CC[C@@]5(C)[C@]3(C)C[C@H]4O)OC[C@H](O)[C@@H]2O)[C@H](O)[C@H](O)[C@H]1O[C@@H]1OC[C@@H](O)[C@H](O[C@@H]2OC[C@@H](O)[C@H](O)[C@H]2O)[C@H]1O` [ASTERLINGULATOSIDE], for which the IC50 was found to be 6.1 µM.
The result for `CC1(C)CC[C@]2(C(=O)O[C@@H]3OC[C@H](O)[C@H](O)[C@H]3O)[C@H](O)C[C@]3(C)C(=CC[C@@H]4[C@@]5(C)CC[C@H](O[C@@H]6O[C@H](CO)[C@@H](O)[C@H](O)[C@H]6O)C(C)(C)[C@@H]5CC[C@]43C)[C@@H]2C1` [ASTERLINGULATOSIDE A] reads 39 µM; that for `C[C@@H]1O[C@@H](O[C@H]2[C@H](OC(=O)[C@]34CCC(C)(C)C[C@H]3C3=CC[C@@H]5[C@@]6(C)CC[C@H](O[C@@H]7O[C@H](CO)[C@@H](O)[C@H](O)[C@H]7O)C(C)(C)[C@@H]6CC[C@@]5(C)[C@]3(C)C[C@H]4O)OC[C@H](O)[C@@H]2O)[C@H](O)[C@H](O)[C@H]1O[C@@H]1OC[C@@H](O)[C@H](O)[C@H]1O` [ASTERLINGULATOSIDE C], 8.8 µM.
Regarding `C[C@@H]1O[C@@H](O[C@H]2[C@H](OC(=O)[C@]34CCC(C)(C)C[C@H]3C3=CC[C@@H]5[C@@]6(C)CC[C@H](O[C@@H]7O[C@H](CO)[C@@H](O)[C@H](O)[C@H]7O)C(C)(C)[C@@H]6CC[C@@]5(C)[C@]3(C)C[C@H]4O)OC[C@H](O)[C@@H]2O)[C@H](O)[C@H](O)[C@H]1O` [ASTERLINGULATOSIDE B], the half-maximal inhibitory concentration (IC50) came to 70.4 µM.

As a reminder, the IC50 is the concentration needed to halve the response being measured.

For the origin of these results see ChEMBL document CHEMBL1146437, “Asterlingulatosides C and D, cytotoxic triterpenoid saponins from Aster lingulatus” (J Nat Prod, 1997).
